What is called IC50 is the concentration at which inhibition is half-maximal.

The results in this text go back to US6432988B1, “2-arylalkylthio -imidazoles, 2-arylalkenyl -thio -imidazoles and 2-arylalkinyl -thio -imidazoles as anti -inflammatory substances and substances inhibiting the release of cytokine” (Merckle GmbH, priority 1998, dated 2002).

For assay [1], the system named is TNF-α. The experiment in a line: Inhibition of LPS-stimulated cytokine secretion in human PBMC (TNF-α). It counts as cell-based. To be noted: LPS 1 μg/ml, 24 h, read-out: TNFα, PBMC (IC50 values). On the procedure:
(§1) Test System for Determining the Inhibition of LPS-stimulated Cytokine Secretion (TNF-α, IL-1β)
(§2) Human PBMC (peripheral blood mononuclear cells) are preincubated with test substance for 5 min at 37° C., then stimulated with LPS (1 μg/ml) for 24 h at 37° C. The cytokines TNF-α, IL-1β, IL-6 and IL-8 are Determined by means of ELISA (see Blood 75, 40-47 (1990)).

Assay [2] has as its system IL-1β. The experiment in a line: Inhibition of LPS-stimulated cytokine secretion in human PBMC (IL-1β). It counts as cell-based. To be noted: LPS 1 μg/ml, 24 h. The protocol: as §1, §2
The target in the next assay is T1, 5-lipoxygenase (5-LO) (Homo sapiens, UniProt P09917).
T1 construct: The source used for the 5-lipoxygenase is human granulocytes; endogenous in cells; host or cells: human granulocytes isolated from heparinised blood
T1 sequence (P09917 1-674): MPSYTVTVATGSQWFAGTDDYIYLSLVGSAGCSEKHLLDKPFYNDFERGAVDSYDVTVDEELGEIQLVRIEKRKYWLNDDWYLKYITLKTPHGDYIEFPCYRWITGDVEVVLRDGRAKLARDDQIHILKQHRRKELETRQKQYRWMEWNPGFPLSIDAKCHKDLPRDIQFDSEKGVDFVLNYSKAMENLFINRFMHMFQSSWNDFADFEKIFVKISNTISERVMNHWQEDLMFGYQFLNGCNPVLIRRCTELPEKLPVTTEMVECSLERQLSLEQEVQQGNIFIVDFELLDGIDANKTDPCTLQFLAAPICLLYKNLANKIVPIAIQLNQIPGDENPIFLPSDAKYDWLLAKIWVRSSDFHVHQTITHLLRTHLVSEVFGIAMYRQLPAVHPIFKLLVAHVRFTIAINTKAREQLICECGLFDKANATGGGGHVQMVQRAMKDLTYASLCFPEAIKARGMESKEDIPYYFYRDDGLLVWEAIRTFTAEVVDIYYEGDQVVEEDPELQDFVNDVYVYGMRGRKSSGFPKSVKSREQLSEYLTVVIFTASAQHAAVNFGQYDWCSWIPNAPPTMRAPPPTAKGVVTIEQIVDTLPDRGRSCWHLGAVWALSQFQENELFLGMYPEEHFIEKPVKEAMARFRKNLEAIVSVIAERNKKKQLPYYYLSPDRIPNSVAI
Nature of the assay: Inhibition of 5-lipoxygenase: LTB4 formation in human granulocytes stimulated with calcium ionophore A 23187, ELISA. In kind it is cell-based. To be noted: A 23187, LTB4 ELISA. On the procedure: Test System for Determining the Inhibition of 5-lipoxygenase (5-LO)
The source used for the 5-lipoxygenase is human granulocytes. By stimulation with calcium ionophore A 23187, LTB4 (leukotriene B4) is formed from endogenous arachidonic acid. The granulocytes are isolated and the enzyme reaction is carried out according to known processes (see Arch. Pharm. Pharm. Med. Chem. 330, 307-312 (1997)).
The blood protected from clotting by heparin is centrifuged on a discontinuous Percoll® gradient and the granulocyte layer is removed by pipette. After lysis of the erythrocytes, the granulocytes are washed a number of times and then adjusted to a specific cell count. The enzyme reaction is then started in the presence or absence of the test substance after addition of Ca^2+ using calcium ionophore A 23187. The synthesis of the leukotrienes is stopped after 1.5 minutes. The samples are centrifuged off and the supernatant is diluted. LTB4 is determined quantitatively by means of ELISA.
Background: In an ELISA, binding on a coated surface is turned into a signal by an enzyme label.

Another assay deals with T2, Cyclooxygenase-1 (COX-1) (Homo sapiens, UniProt P23219).
T2 construct: endogenous in cells; host or cells: human platelets
The experiment in a line: Inhibition of cyclooxygenase-1: prostaglandin E2 formed by human platelets after calcium ionophore, ELISA. In kind it is cell-based. To be noted: PGE2 ELISA. The protocol: Test System for Determining the Inhibition of Cyclooxygenase-1 (COX-1)
In this test system, the amount of prostaglandin E2 formed by human platelets after addition of calcium ionophore is determined by means of ELISA. The platelets are obtained here after centrifugation on a discontinuous Percoll® gradient. The enzyme reaction and the determination of the metabolites formed are in principle carried out as in the determination of the inhibition of 5-lipoxygenase. Differences exist with respect to the incubation time. Furthermore, the addition of a thromboxane synthase inhibitor is necessary (see Arch. Pharm. Pharm. Med. Chem. 330, 307-312 (1997)).

In a further assay the target is T3, Cyclooxygenase-2 (COX-2) (Ovis aries, UniProt P79208).
T3 construct: COX-2 (from sheep placenta) is preincubated with test substance for 10 min at 4° C; from tissue; host or cells: sheep placenta
T3 sequence (P79208 17-603): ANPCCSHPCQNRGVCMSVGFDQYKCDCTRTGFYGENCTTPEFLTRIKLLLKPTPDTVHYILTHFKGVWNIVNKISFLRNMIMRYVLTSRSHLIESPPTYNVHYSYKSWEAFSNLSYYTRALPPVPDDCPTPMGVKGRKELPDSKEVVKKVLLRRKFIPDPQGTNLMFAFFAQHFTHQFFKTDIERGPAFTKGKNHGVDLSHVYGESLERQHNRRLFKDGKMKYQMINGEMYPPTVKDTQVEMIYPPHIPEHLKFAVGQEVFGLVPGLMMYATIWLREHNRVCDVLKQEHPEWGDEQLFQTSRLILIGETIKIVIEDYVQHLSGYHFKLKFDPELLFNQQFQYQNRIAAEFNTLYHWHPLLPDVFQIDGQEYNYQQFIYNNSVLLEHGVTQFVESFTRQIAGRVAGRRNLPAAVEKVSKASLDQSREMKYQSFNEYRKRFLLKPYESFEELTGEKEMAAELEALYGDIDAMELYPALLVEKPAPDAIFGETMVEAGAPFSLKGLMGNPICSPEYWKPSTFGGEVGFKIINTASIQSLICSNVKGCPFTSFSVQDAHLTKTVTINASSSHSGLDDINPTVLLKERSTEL
The experiment in a line: Inhibition of cyclooxygenase-2: COX-2 from sheep placenta, arachidonic acid, PGE2 by ELISA. The conditions noted are these: arachidonic acid 5 μm. It counts as biochemical. On the procedure:
Test System for Determining the Inhibition of Cyclooxygenase-2 (COX-2)
COX-2 (from sheep placenta) is preincubated with test substance for 10 min at 4° C., then stimulated with arachidonic acid (5 μm) at 25° C. for 10 min. […] Determination is carried out 3 dilutions (10^−7, 10^−6, 10^−5 molar). The PGE2 concentrations are quantified by means of ELISA (see Mitchell J. A. et al. Proc. Nat. Acad. Sci 90: 11693-11697 (1993)).

The test system of assay [3] is TNF-α. Nature of the assay: Inhibition of LPS-stimulated cytokine secretion in whole blood (TNF-α). It counts as cell-based. The conditions noted are these: human whole blood, LPS 1 μg/ml, 4 h; read-out: TNFα, Whole blood method (IC50 values). On the procedure:
(§3) Test System for Determining the Inhibition of LPS-stimulated Cytokine Secretion (TNF-α, IL-1β) in Whole Blood
(§4) Fresh, human whole blood from healthy donors is preincubated with test substance for 25 min at 37° C. The cells are stimulated with LPS (1 μg/ml) for 4 h at 37° C. In the plasma supernatant which is isolated by centrifugation, the cytokines TNF-α, IL-1β, IL-6 and IL-8 are quantified by means of ELISA (see Inflamm. Res. 44, 269-274 (1995)).

Assay [4] has as its system IL-1β. Nature of the assay: Inhibition of LPS-stimulated cytokine secretion in whole blood (IL-1β). It counts as cell-based. To be noted: human whole blood, LPS 1 μg/ml, 4 h; read-out: IL-1β, Whole blood method (IC50 values). The protocol: as §3, §4

A value given as a limit tells only on which side of the number the result lay.

T2 sequence (P23219 24-599): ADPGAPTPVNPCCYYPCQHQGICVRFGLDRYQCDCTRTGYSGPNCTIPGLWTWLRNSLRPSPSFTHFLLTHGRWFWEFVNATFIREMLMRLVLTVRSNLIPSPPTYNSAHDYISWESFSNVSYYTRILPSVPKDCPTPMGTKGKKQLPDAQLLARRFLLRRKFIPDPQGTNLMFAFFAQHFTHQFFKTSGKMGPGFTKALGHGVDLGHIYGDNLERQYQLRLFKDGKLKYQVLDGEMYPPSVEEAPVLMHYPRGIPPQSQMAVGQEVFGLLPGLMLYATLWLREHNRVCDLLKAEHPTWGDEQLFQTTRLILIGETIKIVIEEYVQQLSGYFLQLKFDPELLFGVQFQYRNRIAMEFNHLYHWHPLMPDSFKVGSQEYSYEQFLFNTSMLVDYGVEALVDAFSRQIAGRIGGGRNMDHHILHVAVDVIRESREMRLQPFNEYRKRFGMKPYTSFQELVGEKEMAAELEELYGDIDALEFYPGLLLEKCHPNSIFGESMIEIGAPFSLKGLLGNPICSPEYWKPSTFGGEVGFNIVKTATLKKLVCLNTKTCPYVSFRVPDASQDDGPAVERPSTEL

Regarding `CS(=O)(=O)c1ccc(CCSc2nc(-c3ccncc3)c(-c3ccc(F)cc3)[nH]2)cc1` [Example 7, 5-(4-Fluorophenyl)-2-[2-(4-methylsulfonylphenyl)ethylthio]-4-(4-pyridyl)imidazole], the IC50 stood at 14 µM in the assay on TNF-α [1] and 21 µM in the assay with IL-1β [2].
Regarding `CSc1ccc(CCSc2nc(-c3ccncc3)c(-c3ccc(F)cc3)[nH]2)cc1` [Example 6, 2-[2-(4-Methylthiophenyl)ethylthio]-5-(4-fluorophenyl)4-(4-pyridyl)imidazole], the IC50 on 5-lipoxygenase (5-LO) is below 0.01 µM; at Cyclooxygenase-1 (COX-1), 6.5 µM; against Cyclooxygenase-2 (COX-2), 3 µM; in the assay on TNF-α [1] it was 6 µM; in the assay with IL-1β [2] it was 58 µM.
In the case of `C[S+]([O-])c1ccc(O)c(CSc2nc(-c3ccncc3)c(-c3ccc(F)cc3)[nH]2)c1` (stereo not shown) [Example 16, 2-[(2-Hydroxy-5-methylsulfinylphenyl)methylthio]-5-(4-fluorophenyl)-4-(4-pyridyl)-1H-imidazole], the IC50 was 4.2 µM with TNF-α [1], 0.64 µM in the assay with IL-1β [2], 76 µM in the assay on TNF-α [3] and 13 µM in the assay with IL-1β [4].
In the case of `CS(=O)(=O)c1ccc(-c2nc(-c3ccc(F)cc3)c(-c3ccncc3)[nH]2)cc1` [Reference B, reference compound], inhibition with IL-1β [2] was half-maximal at 7.5 µM (IC50).
Take `C[S+]([O-])c1ccccc1CSc1nc(-c2ccncc2)c(-c2ccc(F)cc2)[nH]1` (stereo not shown) [Example 10, 5-(4-Fluorophenyl)-2-[(2-methylsulfinylphenyl)methylthio]-4-(4-pyridyl)-1H-imidazole]: the figures for the IC50 with TNF-α [3] and in the assay on IL-1β [4] were 48 µM and 4 µM, respectively.
The corresponding values for `C[S+]([O-])c1cc(CSc2nc(-c3ccncc3)c(-c3ccc(F)cc3)[nH]2)ccc1O` (stereo not shown) [Example 12, 5-(4-Fluorophenyl)-2-[(4-hydroxy-3-methylsulfinylphenyl)methylthio]-4-(4-pyridyl)-1H-imidazole] are 9 µM and 12.1 µM.
On to `NS(=O)(=O)c1ccc(CSc2nc(-c3ccncc3)c(-c3ccc(F)cc3)[nH]2)cc1` [Example 5, 2-[(4-Aminosulfonylphenyl)methylthio]-5-(4-fluorophenyl)-4-(4-pyridyl)imidazole], for which the half-inhibitory concentration (IC50) is 2.8 µM on 5-lipoxygenase (5-LO); 0.038 µM at Cyclooxygenase-1 (COX-1); 10 µM on Cyclooxygenase-2 (COX-2); 3.1 µM in the assay with TNF-α [1]; 18 µM with IL-1β [2].
`C[S+]([O-])c1ccc(CSc2nc(-c3ccncc3)c(-c3ccc(F)cc3)[nH]2)cc1` (stereo not shown) [Example 2, 5-(4-Fluorophenyl)-2-[(4-methylsulfinyl)benzylthio]-4-(4-pyridyl)imidazole]: the IC50 on 5-lipoxygenase (5-LO) was found to be 10 µM; against Cyclooxygenase-2 (COX-2) it was 6.3 µM; in the assay with TNF-α [1], 6.8 µM; in the assay on IL-1β [2], 2.3 µM; in the assay with TNF-α [3] it was 16 µM; in the assay on IL-1β [4] it was 2.9 µM.
In the case of `CSc1ccc(CSc2nc(-c3ccncc3)c(-c3ccc(F)cc3)[nH]2)cc1` [Example 1, 5-(4-Fluorophenyl)-2-[(4-methylthio)benzylthio]-4-(4-pyridyl)imidazole], the concentration for half-maximal inhibition (IC50) was 0.065 µM on 5-lipoxygenase (5-LO); 3.4 µM on Cyclooxygenase-1 (COX-1); 6.1 µM against Cyclooxygenase-2 (COX-2); 10 µM in the assay with TNF-α [1]; above 100 µM in the assay on IL-1β [2]; 30 µM with TNF-α [3]. Besides, in the assay with IL-1β [4], the half-inhibitory concentration (IC50) turned out to be 30 µM.
`NS(=O)(=O)c1ccc(CCSc2nc(-c3ccncc3)c(-c3ccc(F)cc3)[nH]2)cc1` [Example 4, 2-[2-(4-Aminosulfonylphenyl)ethylthio]-5-(4-fluorophenyl)-4-(4-pyridyl)imidazole]: the IC50 was found to be 0.085 µM on 5-lipoxygenase (5-LO); 2.2 µM at Cyclooxygenase-1 (COX-1); 7 µM against Cyclooxygenase-2 (COX-2); 3.3 µM in the assay on TNF-α [1]; 9.3 µM in the assay on IL-1β [2].
On to `C[S+]([O-])c1cccc(CSc2nc(-c3ccncc3)c(-c3ccc(F)cc3)[nH]2)c1` (stereo not shown) [Example 9, 5-(4-Fluorophenyl)-2-[(3-methylsulfinylphenyl)methylthio]-4-(4-pyridyl)-1H-imidazole], for which the 50% inhibitory concentration (IC50) in the assay with TNF-α [3] was 24 µM; in the assay on IL-1β [4] it was 1.9 µM.
Consider `CS(=O)(=O)c1ccc(CSc2nc(-c3ccncc3)c(-c3ccc(F)cc3)[nH]2)cc1` [Example 3, 5-(4-Fluorophenyl)-2-[(4-methylsulfonyl)benzylthio]-4-(4-pyridyl)imidazole], for which the IC50 at 5-lipoxygenase (5-LO) was 0.8 µM; with TNF-α [1], 4 µM; with IL-1β [2], above 100 µM; with TNF-α [3], 19 µM; in the assay on IL-1β [4], 1.2 µM.
